Patent US20170050957A1, “4-AMINO-6-(HETEROCYCLIC)PICOLINATES AND 6-AMINO-2-(HETEROCYCLIC)PYRIMIDINE-4-CARBOXYLATES AND THEIR USE AS HERBICIDES” (Dow AgroSciences LLC, priority 2013, published 2017)
Like-named read-outs stand apart in the source and are kept apart here.

How the values were obtained:
[1] = system: Key Broadleaf Weed and Crop Species; assay: Post-emergent Test II herbicidal activity (Table 15); format: in vivo; conditions: post-emergence, 336 h, 14 d; for pest or weed control at 35 g/ha: 35 g ai/ha; for pest or weed control at 70 g/ha: 70 g ai/ha; for pest or weed control at 140 g/ha: 140 g ai/ha
How it was run: (§1)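 Post-emergence spray; seedlings 7-21 d old, 1st-2nd true leaf; 187 L/ha; serial rates 1×-1/16×; solvent blank controls; subirrigated; visual % injury at 14 d.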

[2] = system: Key Grass and Sedge Weeds as well as Grass Crops; assay: Post-emergent Test II herbicidal activity (Table 16); format: in vivo; conditions: post-emergence, 336 h, 14 days after application; for pest or weed control at 35 g/ha: 35 g ai/ha; for pest or weed control at 70 g/ha: 70 g ai/ha; for pest or weed control at 140 g/ha: 140 g ai/ha
How it was run: as §1

[3] = Abutilon theophrasti, velvetleaf (Abutilon theophrasti), read-out: Visual Growth Reduction (%) 14 Days After Application, ABUTH
[4] = Amaranthus retroflexus, redroot pigweed (Amaranthus retroflexus), read-out: Visual Growth Reduction (%) 14 Days After Application, AMARE
[5] = Brassica napus, oilseed rape, canola (Brassica napus), read-out: Visual Growth Reduction (%) 14 Days After Application, BRSNN
[6] = Chenopodium album, lambsquarters (Chenopodium album), read-out: Visual Growth Reduction (%) 14 Days After Application, CHEAL
[7] = Euphorbia heterophylla, wild poinsettia (Euphorbia heterophylla), read-out: Visual Growth Reduction (%) 14 Days After Application, EPHHL
[8] = Helianthus annuus, sunflower (Helianthus annuus), read-out: Visual Growth Reduction (%) 14 Days After Application, HELAN
[9] = Cyperus esculentus, yellow nutsedge (Cyperus esculentus), read-out: Visual Growth Reduction (%) 14 Days After Application CYPES
[10] = Echinochloa crus-galli, barnyardgrass (Echinochloa crus-galli), read-out: Visual Growth Reduction (%) 14 Days After Application ECHCG
[11] = Oryza sativa, rice (Oryza sativa), read-out: Visual Growth Reduction (%) 14 Days After Application ORYSA
[12] = Setaria faberi, giant foxtail (Setaria faberi), read-out: Visual Growth Reduction (%) 14 Days After Application SETFA
[13] = Triticum aestivum, wheat, spring (Triticum aestivum), read-out: Visual Growth Reduction (%) 14 Days After Application TRZAS
[14] = Zea mays, maize, corn (Zea mays), read-out: Visual Growth Reduction (%) 14 Days After Application ZEAMX

| SMILES | pest or weed control at 35 g/ha [1, 3] [%] | pest or weed control at 70 g/ha [1, 3] [%] | pest or weed control at 140 g/ha [1, 3] [%] | pest or weed control at 35 g/ha [1, 4] [%] | pest or weed control at 70 g/ha [1, 4] [%] | pest or weed control at 140 g/ha [1, 4] [%] | pest or weed control at 35 g/ha [1, 5] [%] | pest or weed control at 70 g/ha [1, 5] [%] | pest or weed control at 140 g/ha [1, 5] [%] | pest or weed control at 35 g/ha [1, 6] [%] | pest or weed control at 70 g/ha [1, 6] [%] | pest or weed control at 140 g/ha [1, 6] [%] | pest or weed control at 35 g/ha [1, 7] [%] | pest or weed control at 70 g/ha [1, 7] [%] | pest or weed control at 140 g/ha [1, 7] [%] | pest or weed control at 35 g/ha [1, 8] [%] | pest or weed control at 70 g/ha [1, 8] [%] | pest or weed control at 140 g/ha [1, 8] [%] | pest or weed control at 35 g/ha [2, 9] [%] | pest or weed control at 70 g/ha [2, 9] [%] | further results |
| --- | --- | --- | --- | --- | --- | --- | --- | --- | --- | --- | --- | --- | --- | --- | --- | --- | --- | --- | --- | --- | --- |
| COC(=O)c1nc(-c2ccc3ccsc3c2)c(C)c(N)c1Cl [Compound 3.18] | 60 to 74 | 75 to 84 | 75 to 84 | 60 to 74 | 75 to 84 | 95 to 100 | 0 to 29 | 0 to 29 | 0 to 29 | 30 to 44 | 60 to 74 | 60 to 74 | 45 to 59 | 0 to 29 | 30 to 44 | 95 to 100 | 95 to 100 | 95 to 100 | 0 to 29 | 0 to 29 | pest or weed control at 140 g/ha [2, 9]: 0 to 29%; pest or weed control at 35 g/ha [2, 10]: 0 to 29%; pest or weed control at 70 g/ha [2, 10]: 0 to 29%; pest or weed control at 140 g/ha [2, 10]: 0 to 29%; pest or weed control at 35 g/ha [2, 11]: 0 to 29%; pest or weed control at 70 g/ha [2, 11]: 0 to 29%; pest or weed control at 140 g/ha [2, 11]: 0 to 29%; pest or weed control at 35 g/ha [2, 12]: 0 to 29%; pest or weed control at 70 g/ha [2, 12]: 0 to 29%; pest or weed control at 140 g/ha [2, 12]: 0 to 29%; pest or weed control at 35 g/ha [2, 13]: 0 to 29%; pest or weed control at 70 g/ha [2, 13]: 0 to 29%; pest or weed control at 140 g/ha [2, 13]: 0 to 29%; pest or weed control at 35 g/ha [2, 14]: 0 to 29%; pest or weed control at 70 g/ha [2, 14]: 0 to 29%; pest or weed control at 140 g/ha [2, 14]: 0 to 29%; melting point: 143 to 146 °C |
| COC(=O)c1nc(-c2cc3sccc3cc2F)nc(N)c1OC [Compound 3.22] | 0 to 29 | 0 to 29 | 0 to 29 | 60 to 74 | 95 to 100 | 95 to 100 | 0 to 29 | 30 to 44 | 60 to 74 | 60 to 74 | 75 to 84 | 85 to 94 | 95 to 100 | 95 to 100 | 95 to 100 | 75 to 84 | 85 to 94 | 85 to 94 | 0 to 29 | 0 to 29 | pest or weed control at 140 g/ha [2, 9]: 0 to 29%; pest or weed control at 35 g/ha [2, 10]: 0 to 29%; pest or weed control at 70 g/ha [2, 10]: 0 to 29%; pest or weed control at 140 g/ha [2, 10]: 0 to 29%; pest or weed control at 35 g/ha [2, 11]: 0 to 29%; pest or weed control at 70 g/ha [2, 11]: 0 to 29%; pest or weed control at 140 g/ha [2, 11]: 0 to 29%; pest or weed control at 35 g/ha [2, 12]: 0 to 29%; pest or weed control at 70 g/ha [2, 12]: 0 to 29%; pest or weed control at 140 g/ha [2, 12]: 0 to 29%; pest or weed control at 35 g/ha [2, 13]: 0 to 29%; pest or weed control at 70 g/ha [2, 13]: 0 to 29%; pest or weed control at 140 g/ha [2, 13]: 0 to 29%; pest or weed control at 35 g/ha [2, 14]: 0 to 29%; pest or weed control at 70 g/ha [2, 14]: 0 to 29%; pest or weed control at 140 g/ha [2, 14]: 0 to 29%; melting point: 168 °C |
